The values that follow come from patent US9493444B2 (Merck Patent GmbH, priority 2012, dated 2016).

One may read the IC50 as the midpoint of a concentration-inhibition curve.

Molecules are shown by their SMILES.

The test system of this experiment is Wnt pathway (TCF-dependent transcription in HEK293 luciferase reporter cell line with ER-DSH construct). The experiment is described as follows: Cellular assay for Wnt pathway activity (luciferase reporter). The format is cell-based. Conditions: Homo sapiens; Wnt pathway inhibition, HEK293 luciferase reporter cells (ER-DSH, TCF promoter), 24 hours incubation, estrogen-induced. The method, boiled down:
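Compounds (30 μM down to 1 nM) were incubated 24 h on cells induced for TCF-dependent transcription with estrogen. Luciferase activity was read by luminescence, normalized to untreated vehicle control, and fitted for IC50.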
On the technique in general: In a reporter assay the amount or activity of a reporter protein is the signal.
As to `CN(CCN(C)c1cncc(Oc2ccc(F)cc2)n1)C(=O)CO` [Compound 286, N-(2-{[6-(4-Fluoro-phenoxy)-pyrazin-2-yl]-methyl-amino}-ethyl)-2-hydroxy-N-methyl-acetamide], the IC50 is below 200 nM. As for `CC(=O)N(C)CCN(C)c1cncc(Oc2ccc(-c3ccc(N4CCN(C(=O)CCCCCNC(=O)CCCCC5SCC6NC(=O)NC65)CC4)nc3)cc2)n1` (stereo not drawn) [Compound 287, 5-(2-Oxo-hexahydro-thieno[3,4-d]imidazol-6-yl)-pentanoic acid [6-(4-{5-[4-(6-{[2-(acetyl-methyl-amino)-ethyl]-methyl-amino}-pyrazin-2-yloxy)-phenyl]-pyridin-2-yl}-piperazin-1-yl)-6-oxo-hexyl]-amide], the figure is below 200 nM; as for `CC(=O)N(C)CCNc1cncc(Oc2ccc(-c3ccnc(C#N)c3)cc2)n1` [Compound 288, N-(2-{6-[4-(2-Cyano-pyridin-4-yl)-phenoxy]-pyrazin-2-ylamino}-ethyl)-N-methyl-acetamide], 1000 to 10000 nM.

As for `CC(=O)NCC(C)Nc1cncc(Oc2ccc(F)cc2)n1` (stereo not drawn) [Compound 289, N-{2-[6-(4-Fluoro-phenoxy)-pyrazin-2-ylamino]-propyl}-acetamide], the IC50 was 1000 to 10000 nM. The same measure for `C=CC(=O)N(C)CCN(C)c1cncc(Oc2ccc(F)cc2)n1` [Compound 290, N-(2-{[6-(4-Fluoro-phenoxy)-pyrazin-2-yl]-methyl-amino}-ethyl)-N-methyl-acrylamide]: 1000 to 10000 nM; for `Nc1cnc(-c2ccc(Oc3cncc(NCCN4CCCCC4=O)n3)cc2)cn1` [Compound 291, 1-(2-{6-[4-(5-Amino-pyrazin-2-yl)-phenoxy]-pyrazin-2-ylamino}-ethyl)-piperidin-2-one]: below 200 nM; for `O=C1CCCCN1CCNc1cncc(Oc2ccc(-c3ccc(CO)nc3)cc2)n1` [Compound 292, 1-(2-{6-[4-(6-Hydroxy-methyl-pyridin-3-yl)-phenoxy]-pyrazin-2-ylamino}-ethyl)-piperidin-2-one]: below 200 nM. The same measure for `CC(=O)N(C)CCNc1cncc(Oc2ccc(-c3ccc(CO)cn3)cc2)n1` [Compound 293, N-(2-{6-[4-(5-Hydroxy-methyl-pyridin-2-yl)-phenoxy]-pyrazin-2-ylamino}-ethyl)-N-methyl-acetamide]: 200 to 1000 nM. As for `CC(=O)N(C)CCNc1cncc(Oc2ccc(-c3ccc(S(N)(=O)=O)cn3)cc2)n1` [Compound 294, N-Methyl-N-(2-{6-[4-(5-sulfamoyl-pyridin-2-yl)-phenoxy]-pyrazin-2-ylamino}-ethyl)-acetamide], the figure is 1000 to 10000 nM; as for `O=C1CCCCN1CCNc1cncc(Oc2ccc(-c3ccc(N4CCOCC4)nc3)cc2)n1` [Compound 295, 1-(2-{6-[4-(6-Morpholin-4-yl-pyridin-3-yl)-phenoxy]-pyrazin-2-ylamino}-ethyl)-piperidin-2-one], below 200 nM; as for `N#Cc1cnccc1-c1ccc(Oc2cncc(NCCN3CCCCC3=O)n2)cc1` [Compound 296, 4-(4-{6-[2-(2-Oxo-piperidin-1-yl)-ethylamino]-pyrazin-2-yloxy}-phenyl)-nicotinonitrile], 200 to 1000 nM. `Cc1ccc(-c2ccc(Oc3cncc(NCCC(N)=O)n3)cc2)nc1` [Compound 298, 3-{6-[4-(5-Methyl-pyridin-2-yl)-phenoxy]-pyrazin-2-ylamino}-propionamide] returned an IC50 of 200 to 1000 nM.

Take `NC(=O)CCNc1cncc(Oc2ccc(-c3ccc(CO)nc3)cc2)n1` [Compound 299, 3-{6-[4-(6-Hydroxy-methyl-pyridin-3-yl)-phenoxy]-pyrazin-2-ylamino}-propionamide]: the IC50 was in the range of 1000 to 10000 nM. The compound `CS(=O)(=O)c1cncc(-c2ccc(Oc3cncc(NCCC(N)=O)n3)cc2)c1` [Compound 300, 3-{6-[4-(5-Methane-sulfonyl-pyridin-3-yl)-phenoxy]-pyrazin-2-ylamino}-propionamide] registered an IC50 of at least 10000 nM. As for `NC(=O)CCNc1cncc(Oc2ccc(-c3cnc(N)cn3)cc2)n1` [Compound 301, 3-{6-[4-(5-Amino-pyrazin-2-yl)-phenoxy]-pyrazin-2-ylamino}-propionamide], the figure is 1000 to 10000 nM; as for `CC(=O)N(C)CCNc1cncc(Oc2ccc(-c3cccnc3)c(F)c2F)n1` [Compound 302, N-{2-[6-(2,3-Difluoro-4-pyridin-3-yl-phenoxy)-pyrazin-2-ylamino]-ethyl}-N-methyl-acetamide], 1000 to 10000 nM. As to `O=C1[C@@H]2CC[C@@H](C2)N1CCCc1cncc(Oc2ccc(F)cc2)n1` [Compound 303, (1S,4R)-2-{3-[6-(4-Fluoro-phenoxy)-pyrazin-2-yl]-propyl}-2-aza-bicyclo[2.2.1]heptan-3-one], the half-maximal inhibitory concentration (IC50) fell in the range of 200 to 1000 nM. With `CC(=O)N(C)CCCc1cncc(Oc2ccc(F)cc2)c1` [Compound 304, N-{3-[5-(4-Fluoro-phenoxy)-pyridin-3-yl]-propyl}-N-methyl-acetamide], the IC50 lay in the range of 200 to 1000 nM.

As to `CC(=O)N(C)CCCc1cnc(N)c(Oc2ccc(F)cc2)c1` [Compound 306, N-{3-[6-Amino-5-(4-fluoro-phenoxy)-pyridin-3-yl]-propyl}-N-methyl-acetamide], the IC50 fell in the range of 1000 to 10000 nM. The same measure for `O=C1CCCCN1CCNc1cncc(Oc2ccc(N3CCOCC3)cc2)n1` [Compound 307, 1-{2-[6-(4-Morpholin-4-yl-phenoxy)-pyrazin-2-ylamino]-ethyl}-piperidin-2-one]: 200 to 1000 nM; for `CC(N)C(=O)N(C)CCN(C)c1cncc(Oc2ccc(F)cc2)n1` (stereo not drawn) [Compound 308, 2-Amino-N-(2-{[6-(4-fluoro-phenoxy)-pyrazin-2-yl]-methyl-amino}-ethyl)-N-methyl-propionamide]: 1000 to 10000 nM. As for `CC(=O)N(C)CCN(C)c1cncc(Oc2ccc(-c3ccc(CN)nc3)cc2)n1` [Compound 309], the figure is below 200 nM; as for `CC(=O)N(C)CCN(C)c1cncc(Oc2ccc(F)cc2)c1` [Compound 310, N-(2-{[5-(4-Fluoro-phenoxy)-pyridin-3-yl]-methyl-amino}-ethyl)-N-methyl-acetamide], 1000 to 10000 nM; as for `CN(C=O)CCNc1cncc(Oc2ccc(-c3cccc(N4CCN(C)CC4)n3)cc2)n1` [Compound 311, N-Methyl-N-[2-(6-{4-[6-(4-methyl-piperazin-1-yl)-pyridin-2-yl]-phenoxy}-pyrazin-2-ylamino)-ethyl]-formamide], 200 to 1000 nM. `CC(=O)N(C)CCCc1cncc(Oc2ccc(-c3ccc(C)cn3)cc2)c1` [Compound 312, N-Methyl-N-(3-{5-[4-(5-methyl-pyridin-2-yl)-phenoxy]-pyridin-3-yl}-propyl)-acetamide] registered an IC50 of 1000 to 10000 nM. The compound `CC(=O)N(C)CCN(C)c1cncc(Oc2ccc(-c3cnn(C)c3)cc2)n1` [Compound 313, N-Methyl-N-[2-(methyl-{6-[4-(1-methyl-1H-pyrazol-4-yl)-phenoxy]-pyrazin-2-yl}-amino)-ethyl]-acetamide] registered an IC50 below 200 nM. As for `CC(=O)N(C)CCCc1cc(Oc2ccc(-c3cccc(N4CCN(C)CC4)n3)cc2)c[n+]([O-])c1` [Compound 314, N-Methyl-N-[3-(5-{4-[6-(4-methyl-piperazin-1-yl)-pyridin-2-yl]-phenoxy}-1-oxy-pyridin-3-yl)-propyl]-acetamide], the IC50 was 1000 to 10000 nM. The same measure for `CC(=O)N(C)CCNc1cncc(Oc2ccc(F)cc2)c1` [Compound 315, N-{2-[5-(4-Fluoro-phenoxy)-pyridin-3-ylamino]-ethyl}-N-methyl-acetamide]: at least 10000 nM. The same measure for `CC(=O)N(C)CCCc1cncc(Oc2ccc(-c3cccc(N4CCN(C)CC4)n3)cc2)c1` [Compound 316, N-Methyl-N-[3-(5-{4-[6-(4-methyl-piperazin-1-yl)-pyridin-2-yl]-phenoxy}-pyridin-3-yl)-propyl]-acetamide]: 1000 to 10000 nM; for `CC(=O)N(C)CCN(C)c1cncc(Oc2ccc3c(cnn3C)c2)n1` [Compound 317, N-Methyl-N-(2-{methyl-[6-(1-methyl-1H-indazol-5-yloxy)-pyrazin-2-yl]-amino}-ethyl)-acetamide]: below 200 nM; for `CC(=O)N(C)CCCc1cncc(Oc2ccc(-c3ccc(N4CCOCC4)nc3)cc2)c1` [Compound 318, N-Methyl-N-(3-{5-[4-(6-morpholin-4-yl-pyridin-3-yl)-phenoxy]-pyridin-3-yl}-propyl)-acetamide]: 200 to 1000 nM. The same measure for `CC(=O)N(C)CCNc1cncc(Cc2ccccc2)n1` [Compound 319, N-[2-(6-Benzyl-pyrazin-2-ylamino)-ethyl]-N-methyl-acetamide]: 200 to 1000 nM; for `CC(=O)N(C)CCN(C)c1cncc(Oc2ccc(-c3ccc(C)cn3)cc2)c1` [Compound 320, N-Methyl-N-[2-(methyl-{5-[4-(5-methyl-pyridin-2-yl)-phenoxy]-pyridin-3-yl}-amino)-ethyl]-acetamide]: 200 to 1000 nM; for `CC(=O)N(C)CCCc1cncc(Oc2ccc(-c3ccncc3C#N)cc2)c1` [Compound 321, N-(3-{5-[4-(3-Cyano-pyridin-4-yl)-phenoxy]-pyridin-3-yl}-propyl)-N-methyl-acetamide]: below 200 nM. In turn, `CC(=O)N(C)CCNc1cncc(Cc2ccc(F)cc2)n1` [Compound 322, N-{2-[6-(4-Fluoro-benzyl)-pyrazin-2-ylamino]-ethyl}-N-methyl-acetamide] registered an IC50 of 1000 to 10000 nM. The same measure for `CC(=O)N(C)CCCc1cncc(Oc2ccc(-c3cnc(N)cn3)cc2)c1` [Compound 323, N-(3-{5-[4-(5-Amino-pyrazin-2-yl)-phenoxy]-pyridin-3-yl}-propyl)-N-methyl-acetamide]: 200 to 1000 nM.
